Test results from US20020164637A1, “SCREEN FOR ECDYSONE RECEPTOR LIGANDS” (priority 1996, published 2002).

Columns and labels:
[1] = target: T1, EcR-Usp complexes (Drosophila melanogaster, UniProt P34021); assay: Competitive displacement of 3H-Ponasterone A binding to extract of yeast co-expressing EcR and Usp; settings: unlabelled ligand, FIG. 4, read-out: IC50 for displacing 3H-Ponasterone binding
T1 construct: An immunoreactive polypeptide corresponding to the full EcR (100 kDa) was detected; ubiquitin (N, cleaved yes); made in house; host or cells: Saccharomyces cerevisiae strain BJ2168 (plasmids YEpEcR and YEpcUSP); unpurified cytosolic extract
T1 sequence (P34021 1-878): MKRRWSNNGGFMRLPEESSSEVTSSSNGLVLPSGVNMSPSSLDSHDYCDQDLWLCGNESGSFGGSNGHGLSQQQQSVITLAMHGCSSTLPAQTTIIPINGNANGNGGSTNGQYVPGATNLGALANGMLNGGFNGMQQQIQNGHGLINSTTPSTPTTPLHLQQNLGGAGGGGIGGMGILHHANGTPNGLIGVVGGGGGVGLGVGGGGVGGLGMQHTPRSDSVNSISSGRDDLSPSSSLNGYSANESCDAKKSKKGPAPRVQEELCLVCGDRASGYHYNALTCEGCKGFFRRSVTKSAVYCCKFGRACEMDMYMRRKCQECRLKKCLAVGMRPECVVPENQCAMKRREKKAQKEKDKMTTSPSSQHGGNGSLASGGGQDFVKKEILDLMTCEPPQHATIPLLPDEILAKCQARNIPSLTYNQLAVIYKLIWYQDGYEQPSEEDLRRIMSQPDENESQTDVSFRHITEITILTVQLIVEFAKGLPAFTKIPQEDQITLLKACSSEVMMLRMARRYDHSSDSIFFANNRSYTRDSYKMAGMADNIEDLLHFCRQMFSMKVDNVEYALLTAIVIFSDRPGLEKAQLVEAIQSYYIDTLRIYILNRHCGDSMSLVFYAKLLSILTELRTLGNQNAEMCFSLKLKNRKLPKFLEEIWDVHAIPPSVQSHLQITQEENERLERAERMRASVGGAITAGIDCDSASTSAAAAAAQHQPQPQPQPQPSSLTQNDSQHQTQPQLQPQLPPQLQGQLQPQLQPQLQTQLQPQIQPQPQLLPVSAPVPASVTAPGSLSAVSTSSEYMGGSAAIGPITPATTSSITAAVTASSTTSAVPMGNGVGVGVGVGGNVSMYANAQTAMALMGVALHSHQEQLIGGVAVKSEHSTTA
T1 sequence (P20153 1-508 partner): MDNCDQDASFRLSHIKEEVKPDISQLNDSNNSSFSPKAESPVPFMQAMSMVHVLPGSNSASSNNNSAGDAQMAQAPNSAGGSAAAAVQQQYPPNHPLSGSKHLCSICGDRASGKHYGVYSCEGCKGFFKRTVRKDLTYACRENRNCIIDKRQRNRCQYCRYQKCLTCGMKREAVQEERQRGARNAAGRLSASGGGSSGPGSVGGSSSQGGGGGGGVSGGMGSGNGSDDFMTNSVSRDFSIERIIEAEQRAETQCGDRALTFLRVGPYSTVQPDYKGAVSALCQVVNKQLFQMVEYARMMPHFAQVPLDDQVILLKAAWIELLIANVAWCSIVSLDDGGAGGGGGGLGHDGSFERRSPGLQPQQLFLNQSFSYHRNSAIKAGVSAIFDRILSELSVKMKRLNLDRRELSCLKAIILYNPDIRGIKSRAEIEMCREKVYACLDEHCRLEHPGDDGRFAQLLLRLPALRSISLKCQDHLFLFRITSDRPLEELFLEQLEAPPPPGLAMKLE
Procedure: (§1) Overnight cultures of yeast strains expressing EcR, Usp, EcR+Usp, and EcR+RxR were inoculated into 1 liter of selective medium and incubated for 16 h at 30° C. In strains expressing Usp, cupric sulfate was added to a final concentration of 100 μM and the culture incubated an additional 4 h at 30° C. The cells were harvested by centrifugation and washed twice in cold TEDG buffer (10 mM Tris-HCl, pH 8.0, 0.1 mM EDTA, 2 mM dithiothreitol, 10% glycerol). The cell pellet was then resuspended in TEDG buffer containing 0.4M NaCl, and vortexed with glass beads in ten 30-second bursts. The resulting homogenate is centrifuged at 1000×g for 10 min, after which the supernatant is centrifuged at 100,000×g for 30 min. The final supernatant is collected, diluted to 12.5 mg/ml protein with TEDG buffer, and stored in aliquots at −80° C.
(§2) The following components were added to each reaction mixture:
(§3) (i) 40 μl yeast extract (12.5 mg/ml protein);
(ii) 20 μl ^3H-Ponasterone A (New England Nuclear, 195 Ci/mmol; 20 μl contains 100,000 cpm and a final concentration of 2.5 nM in the reaction mixture);
(iii) 120 μl TEDG buffer containing the following protease inhibitors: PMSF (Sigma Chemical Co.), 0.15 mg/ml; leupeptin (Bachem), 0.04 mg/ml; chymostatin (Bachem), 0.03 mg/ml; and pepstatin (Sigma), 0.01 mg/ml; and
(iv) 20 μl test sample, 25 μM Muristerone A, or control diluent.
(§4) The reactions were incubated for 1 h at room temperature or at least 12 h at 4° C. Protein-bound and -free radioactivity were separated by hydroxylapatite chromatography or by filtration, the individual samples suspended in scintillation fluid and the radioactivity determined by scintillation counting.
Specificity of hormone binding to the yeast extract was measured by testing the ability of four known (unlabelled) EcR ligands to displace 3H-Ponasterone binding.
The methods described in Example 2 above were used to test a collection of natural products for EcR binding activity (FIG. 7). The products were tested at 1 and 10 μg/ml. Of 92 compounds tested, one (present in well H8) displaced 62% of ^3H-Ponasterone A binding activity at 10 μg/ml.
A chemical library containing 6592 samples was also screened using the methods described above. Each sample was present at 10 μg/ml. Compounds that displaced at least 75% of the radiolabel were scored as positives. These compounds were then used to generate competitive binding curves as described above.

[2] = cited from earlier work
[3] = cited from earlier work; remark: listed apart in the source
[4] = target: T1, EcR-Usp complexes; assay: Saturation and Scatchard analysis of 3H-Ponasterone A binding to extract of yeast co-expressing EcR and Usp; settings: extract from yeast strain co-expressing EcR and Usp
Procedure: as §1, §2, §3
(ii) 20 μl ^3H-Ponasterone A (New England Nuclear, 195 Ci/mmol; 20 μl contains 100,000 cpm and a final concentration of 2.5 nM in the reaction mixture); […]
as §4, with “counting. […]” for “counting.”

Row | Compound | IC50 [1] [nM] | fold less active in bioassays compared with 20-hydroxyecdysone [2] | fold less active in binding assays compared with 20-hydroxyecdysone [3] | Kd [4] [nM]
1 | 20-hydroxyecdysone | 500 |  |  | 
2 | CC(C)(C)N(NC(=O)c1ccccc1)C(=O)c1ccccc1 [RH5849] | 12000 | at least 100 fold | at least 30 fold | 
3 | CC(C)CC[C@@H](O)[C@](C)(O)[C@H]1CC[C@@]2(O)C3=CC(=O)[C@@H]4C[C@@H](O)[C@@H](O)C[C@]4(C)[C@H]3CC[C@]12C [ponasterone A] | 2 |  |  | 
4 | ^3H-Ponasterone A |  |  |  | 1.8
5 | CC(C)CC[C@@H](O)[C@](C)(O)[C@H]1CC[C@@]2(O)C3=CC(=O)[C@]4(O)C[C@@H](O)[C@@H](O)C[C@]4(C)[C@H]3[C@H](O)C[C@]12C [muristerone A] | 15 |  |  | 
